Experimental data taken from patent US20060013871A1 (priority 2003, published 2006).

Assay: Particle size analysis in water suspension, Beckman LS230
Type: physicochemical
Details: feedstock of Example 5, water suspension, Beckman Coulter LS230
Description: The vessel was charged with 405 g of CO2. The agitator rpm was 1,776. The mixing process was run for 1 hr. The final temperature and pressure were 28° C. and 1,434 psig, respectively.
Particle size analysis was done in water suspension using Beckman LS230, however it is known that in an aqueous medium Poloxamer is likely to dissolve.

## CC(C)Cc1ccc(C(C)C(=O)O)cc1 (stereo not drawn) [Ibuprofen]
  d16 particle size of feedstock: 21.8 micron
  d50 particle size of feedstock: 41.21 microns
  d84 particle size of feedstock: 71.05 microns
